Source: US12116343B2, “Inhibitors of APOL1 and methods of using same” (Vertex Pharmaceuticals Incorporated, priority 2020, dated 2024)

Target: T1, G1 APOL1 (Homo sapiens, UniProt O14791, I384M/S342G)
T1 construct: expressed in transfected cells
T1 sequence (O14791 28-398 S342G/I384M): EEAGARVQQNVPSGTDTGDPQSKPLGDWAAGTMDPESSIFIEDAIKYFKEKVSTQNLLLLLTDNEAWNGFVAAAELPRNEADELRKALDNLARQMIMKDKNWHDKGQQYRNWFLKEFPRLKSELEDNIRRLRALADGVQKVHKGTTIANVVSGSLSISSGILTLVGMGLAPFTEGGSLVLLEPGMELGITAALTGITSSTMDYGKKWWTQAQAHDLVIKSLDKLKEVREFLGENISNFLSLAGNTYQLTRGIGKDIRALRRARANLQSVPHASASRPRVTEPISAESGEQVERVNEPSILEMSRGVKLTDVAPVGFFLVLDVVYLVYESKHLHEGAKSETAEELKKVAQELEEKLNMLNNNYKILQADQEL
Test: Acute APOL1 Thallium Assay with inducible stable clones of HEK 293 cells
Type: cell-based
Details: HEK 293 T-Rex cells expressing G1 APOL1; read-out: Thallium Assay (IC50)
Summary of the method: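 Tetracycline-inducible HEK293 T-Rex clone G1 DC3.25 expressing G1 APOL1, plated at 26000 cells/well in Opti-MEM with tetracycline induction. APOL1 pore activity read on FLIPR as fluorescence increase from Tl+ influx into cells loaded with a Tl+-sensitive AM-ester dye.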

SMILES | IC50
O=C(NC1(CO)CCC1)[C@H]1C[C@H](c2c(-c3ccc(F)cc3)[nH]c3c(F)cc(F)cc32)C1 [Compound 6] | < 250 nM
O=C([C@H]1C[C@H](c2c(-c3ccc(F)cc3)[nH]c3c(F)cc(F)cc32)C1)N1CC(n2cccn2)C1 [Compound 96] | > 1000 nM
O=C(O)CNC(=O)[C@H]1C[C@H](c2c(-c3ccc(F)cc3)[nH]c3c(F)cc(F)cc32)C1 [Compound 10] | > 1000 nM
O=C([C@H]1C[C@H](c2c(-c3ccc(F)cc3)[nH]c3c(F)cc(F)cc32)C1)N1CCN(CCO)CC1 [Compound 126] | > 1000 nM
CC1(C)CN(C(=O)[C@H]2C[C@H](c3c(-c4ccc(F)cc4)[nH]c4c(F)cc(F)cc43)C2)CCC1O (some centres unmarked) [Compound 114] | > 1000 nM
NC(=O)[C@@H]1CCN(C(=O)[C@H]2C[C@H](c3c(-c4ccc(F)cc4)[nH]c4c(F)cc(F)cc43)C2)C1 [Compound 135] | > 1000 nM
O=C([C@H]1C[C@H](c2c(-c3ccc(F)cc3)[nH]c3c(F)cc(F)cc32)C1)N1CCC(CO)(CO)CC1 [Compound 108] | > 1000 nM
O=C([C@H]1C[C@H](c2c(-c3ccc(F)cc3)[nH]c3c(F)cc(F)cc32)C1)N1C[C@@H]2[C@@H](CO)[C@@H]2C1 [Compound 99] | > 1000 nM
O=C([C@H]1C[C@H](c2c(-c3ccc(F)cc3)[nH]c3c(F)cc(F)cc32)C1)N1CC(OCC2CCCO2)C1 (some centres unmarked) [Compound 136] | > 1000 nM
CC(O)CN(CCO)C(=O)[C@H]1C[C@H](c2c(-c3ccc(F)cc3)[nH]c3c(F)cc(F)cc32)C1 (mixture of isomers) [Compound 129] | 250 to 1000 nM
O=C([C@H]1C[C@H](c2c(-c3ccc(F)cc3)[nH]c3c(F)cc(F)cc32)C1)N1CCC[C@@H](CO)C1 [Compound 109] | > 1000 nM
C[C@H]1CN(C(=O)[C@H]2C[C@H](c3c(-c4ccc(F)cc4)[nH]c4c(F)cc(F)cc43)C2)CC[C@@H]1O [Compound 116] | > 1000 nM
CCC(O)(CCCO)CNC(=O)[C@H]1C[C@H](c2c(-c3ccc(F)cc3)[nH]c3c(F)cc(F)cc32)C1 (some centres unmarked) [Compound 119] | > 1000 nM

The next lines start with the values.

IC50 | SMILES
> 1000 nM | C[C@@H](O)[C@H](CO)NC(=O)[C@H]1C[C@H](c2c(-c3ccc(F)cc3)[nH]c3c(F)cc(F)cc32)C1 [Compound 155]
250 to 1000 nM | NC(=O)[C@H]1CCCN1C(=O)[C@H]1C[C@H](c2c(-c3ccc(F)cc3)[nH]c3c(F)cc(F)cc32)C1 [Compound 153]
> 1000 nM | NC(=O)[C@H]1CCN(C(=O)[C@H]2C[C@H](c3c(-c4ccc(F)cc4)[nH]c4c(F)cc(F)cc43)C2)C1 [Compound 154]
> 1000 nM | CC(C)[C@@H](CO)NC(=O)[C@H]1C[C@H](c2c(-c3ccc(F)cc3)[nH]c3c(F)cc(F)cc32)C1 [Compound 141]
> 1000 nM | O=C1CCC(NC(=O)[C@H]2C[C@H](c3c(-c4ccc(F)cc4)[nH]c4c(F)cc(F)cc43)C2)C1 (some centres unmarked) [Compound 159]
250 to 1000 nM | NC(=O)[C@H]1C[C@H](c2c(-c3ccc(F)cc3)[nH]c3c(F)cc(F)cc32)C1 [Compound 169]
> 1000 nM | O=C([C@H]1C[C@H](c2c(-c3ccc(F)cc3)[nH]c3c(F)cc(F)cc32)C1)N1CC[C@H](CO)C1 [Compound 140]
